This passage reports GI50 results from patent US12162858B2, “Quinoline derivatives as inhibitors of AXL/MER RTK and CSF1R” (QURIENT CO., LTD., priority 2018, dated 2024).

Where only a bound is given, the exact number is not on record here.

One assay has as its target T1, Axl (Ba/F3 cells) (Homo sapiens, UniProt P30530).
T1 sequence (P30530 1-894): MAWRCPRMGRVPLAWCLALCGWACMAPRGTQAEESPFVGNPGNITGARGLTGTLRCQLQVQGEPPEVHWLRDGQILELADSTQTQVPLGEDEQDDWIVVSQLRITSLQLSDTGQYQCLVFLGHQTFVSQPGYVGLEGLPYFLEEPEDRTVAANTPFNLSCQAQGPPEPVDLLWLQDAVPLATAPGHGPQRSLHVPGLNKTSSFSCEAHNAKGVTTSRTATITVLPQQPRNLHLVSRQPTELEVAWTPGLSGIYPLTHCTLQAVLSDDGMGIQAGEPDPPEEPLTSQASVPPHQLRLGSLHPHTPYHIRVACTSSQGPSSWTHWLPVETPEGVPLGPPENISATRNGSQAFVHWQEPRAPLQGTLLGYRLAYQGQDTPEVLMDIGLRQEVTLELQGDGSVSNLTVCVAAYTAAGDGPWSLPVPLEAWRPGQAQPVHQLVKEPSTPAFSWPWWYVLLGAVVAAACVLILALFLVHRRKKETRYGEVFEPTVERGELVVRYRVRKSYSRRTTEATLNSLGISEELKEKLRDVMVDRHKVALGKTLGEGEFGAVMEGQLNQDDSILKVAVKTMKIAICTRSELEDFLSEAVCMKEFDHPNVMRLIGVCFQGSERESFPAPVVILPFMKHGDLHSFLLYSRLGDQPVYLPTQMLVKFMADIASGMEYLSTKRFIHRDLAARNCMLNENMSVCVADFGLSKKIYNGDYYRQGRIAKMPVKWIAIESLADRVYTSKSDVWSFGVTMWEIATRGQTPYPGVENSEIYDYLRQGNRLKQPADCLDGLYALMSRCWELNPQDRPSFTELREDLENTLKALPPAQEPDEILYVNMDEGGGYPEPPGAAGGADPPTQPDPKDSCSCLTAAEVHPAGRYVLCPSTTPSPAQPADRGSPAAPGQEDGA
Put plainly: BaF3 viability assay, Axl-dependent cells. Format: cell-based. The following applies: read-out: Cellular Axl activity by Ba/F3 assay (IC50). An excerpt: (§1) In this system, IL-3-dependent Ba/F3 cells are modified to express an activated recombinant kinase (in the present case Axl, Mer and CSF1R). Following removal of IL-3, the modified cells are dependent on the activity of the recombinant kinase for survival and proliferation. Inhibition of such kinase(s) through test compounds reduces survival and proliferation of the cells.
(§2) Cell lines were maintained in growth media (GM) consisting of RPMI 1640 supplemented with 10% FBS. Cells in logarithmic-phase growth were harvested and 5,000 cells were distributed into each well of a 384-well plate in 50 μl GM. Parental cells (or experimental assays where specified) were further supplemented with 2 ng/ml IL-3 to support cell growth and survival. Fifty nanoliters of the indicated reference standard or experimental compound were added to appropriate wells (in duplicate) and the cells were cultured for 48 h at 37° C./5% CO2. Viability was determined by adding 10 μl Cell Titer Glo and measuring luminescence, which is reported as relative light units (RLU) measured in counts per second. The following calculations and formulas are used for data analysis using GraphPad Prism software: The curve fitting was made using the Dose response curves-Inhibition.

The next assay concerns the target T2, Mer (Ba/F3 cells) (Homo sapiens, UniProt Q12866).
T2 sequence (Q12866 1-999): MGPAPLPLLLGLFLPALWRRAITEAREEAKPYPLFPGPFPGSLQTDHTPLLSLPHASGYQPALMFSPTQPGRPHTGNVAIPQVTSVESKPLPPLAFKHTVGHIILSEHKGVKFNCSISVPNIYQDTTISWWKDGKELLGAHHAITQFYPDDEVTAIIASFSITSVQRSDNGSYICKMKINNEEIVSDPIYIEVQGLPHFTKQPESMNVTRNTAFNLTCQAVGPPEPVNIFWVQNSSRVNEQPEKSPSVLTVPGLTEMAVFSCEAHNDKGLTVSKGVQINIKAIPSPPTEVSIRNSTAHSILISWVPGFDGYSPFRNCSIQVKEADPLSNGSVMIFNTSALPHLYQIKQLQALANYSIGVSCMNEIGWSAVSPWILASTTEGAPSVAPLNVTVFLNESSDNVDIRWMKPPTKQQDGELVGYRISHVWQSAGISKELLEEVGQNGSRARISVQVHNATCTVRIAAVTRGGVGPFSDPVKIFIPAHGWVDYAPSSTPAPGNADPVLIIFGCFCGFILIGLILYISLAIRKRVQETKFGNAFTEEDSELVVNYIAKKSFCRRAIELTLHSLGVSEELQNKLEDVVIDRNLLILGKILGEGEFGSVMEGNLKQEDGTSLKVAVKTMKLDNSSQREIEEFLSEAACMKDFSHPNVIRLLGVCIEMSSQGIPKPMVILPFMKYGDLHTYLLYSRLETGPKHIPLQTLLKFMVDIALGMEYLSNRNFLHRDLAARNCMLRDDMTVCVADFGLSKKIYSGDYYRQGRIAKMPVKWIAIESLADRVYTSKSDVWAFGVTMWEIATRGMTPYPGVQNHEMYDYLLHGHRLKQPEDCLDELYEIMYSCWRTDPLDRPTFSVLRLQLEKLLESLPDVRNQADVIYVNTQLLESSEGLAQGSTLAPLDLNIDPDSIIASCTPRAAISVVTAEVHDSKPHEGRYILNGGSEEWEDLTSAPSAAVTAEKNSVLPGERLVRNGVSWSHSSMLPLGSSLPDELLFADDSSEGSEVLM
Put plainly: BaF3 viability assay, Mer-dependent cells. The class given is cell-based. The following applies: read-out: Cellular Mer activity by Ba/F3 assay (IC50).
Source text: as §1, §2

For the molecule `COc1cc2nccc(Oc3ccc(NC(=O)c4nn(C5CC5)cc4OCC(F)(F)F)nc3)c2cc1OC` [Compound 5], the GI50 at Axl (Ba/F3 cells) and at Mer (Ba/F3 cells) was less than 1000 nM in each case.
